In PMC8833187 (Proceedings of the National Academy of Sciences of the …, 2022):

Columns and labels:
[1] = tested on: CaM/4Ca^2+; experiment: Combined time-resolved DEER and ssNMR: binding pathway of M13 to CaM/4Ca^2+; set-up: species or system Human
[2] = tested on: CaM/4Ca^2+ with R1 labels at A17C–R1 and A128C–R1; settings: labelled versus unlabelled CaM/4Ca^2+; cited from earlier work

τ, conformational rearrangement of state B to state C [1]: 7 to 18 ms
τ, state A* to collapsed intermediate B [1]: 1.5 to 2.5 ms
timescale τ, state A converted to final compact complex state C ([1]; abstract): ≤ 600 μs
Sequence: KRRWKKNFIAVSAANRFKKISSSGAL [M13]
reduction of affinity for M13 by R1 labels at A17C–R1 and A128C–R1 [2]: about 2.5 fold
